From US20250176598A1, “AMIDE COMPOUNDS AND THEIR USE AS FLAVOR MODIFIERS” (Firmenich Incorporated, priority 2022, published 2025) come the findings set out here.

A value given as a limit tells only on which side of the number the result lay.

The term EC50 denotes the concentration needed to bring the measured effect to its halfway point.

The target in this test is T1, T1R umami taste receptor (Homo sapiens, UniProt Q7RTX0+Q7RTX1).
T1 sequence (Q7RTX1 21-841): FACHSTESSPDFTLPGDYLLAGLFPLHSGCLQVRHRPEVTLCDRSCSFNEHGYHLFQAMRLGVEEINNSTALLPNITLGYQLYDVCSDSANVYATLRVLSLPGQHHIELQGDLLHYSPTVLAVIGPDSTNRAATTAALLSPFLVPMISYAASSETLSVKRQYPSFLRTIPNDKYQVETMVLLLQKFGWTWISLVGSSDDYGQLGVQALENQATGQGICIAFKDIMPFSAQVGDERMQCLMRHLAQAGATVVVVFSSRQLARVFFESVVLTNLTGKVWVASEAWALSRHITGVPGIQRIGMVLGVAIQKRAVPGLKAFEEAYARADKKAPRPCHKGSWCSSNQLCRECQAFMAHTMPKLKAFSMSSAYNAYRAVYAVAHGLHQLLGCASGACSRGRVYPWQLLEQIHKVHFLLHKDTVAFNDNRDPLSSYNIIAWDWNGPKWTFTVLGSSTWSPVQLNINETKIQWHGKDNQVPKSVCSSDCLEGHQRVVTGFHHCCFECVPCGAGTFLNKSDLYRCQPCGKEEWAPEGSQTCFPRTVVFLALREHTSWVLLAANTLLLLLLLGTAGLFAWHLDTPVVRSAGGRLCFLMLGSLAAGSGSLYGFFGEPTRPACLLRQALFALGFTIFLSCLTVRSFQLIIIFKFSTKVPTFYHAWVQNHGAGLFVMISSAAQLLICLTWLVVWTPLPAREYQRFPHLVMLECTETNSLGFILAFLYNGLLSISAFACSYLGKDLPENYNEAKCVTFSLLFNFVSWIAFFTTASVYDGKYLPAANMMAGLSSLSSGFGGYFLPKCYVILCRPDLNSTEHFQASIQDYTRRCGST
T1 sequence (Q7RTX0 21-852): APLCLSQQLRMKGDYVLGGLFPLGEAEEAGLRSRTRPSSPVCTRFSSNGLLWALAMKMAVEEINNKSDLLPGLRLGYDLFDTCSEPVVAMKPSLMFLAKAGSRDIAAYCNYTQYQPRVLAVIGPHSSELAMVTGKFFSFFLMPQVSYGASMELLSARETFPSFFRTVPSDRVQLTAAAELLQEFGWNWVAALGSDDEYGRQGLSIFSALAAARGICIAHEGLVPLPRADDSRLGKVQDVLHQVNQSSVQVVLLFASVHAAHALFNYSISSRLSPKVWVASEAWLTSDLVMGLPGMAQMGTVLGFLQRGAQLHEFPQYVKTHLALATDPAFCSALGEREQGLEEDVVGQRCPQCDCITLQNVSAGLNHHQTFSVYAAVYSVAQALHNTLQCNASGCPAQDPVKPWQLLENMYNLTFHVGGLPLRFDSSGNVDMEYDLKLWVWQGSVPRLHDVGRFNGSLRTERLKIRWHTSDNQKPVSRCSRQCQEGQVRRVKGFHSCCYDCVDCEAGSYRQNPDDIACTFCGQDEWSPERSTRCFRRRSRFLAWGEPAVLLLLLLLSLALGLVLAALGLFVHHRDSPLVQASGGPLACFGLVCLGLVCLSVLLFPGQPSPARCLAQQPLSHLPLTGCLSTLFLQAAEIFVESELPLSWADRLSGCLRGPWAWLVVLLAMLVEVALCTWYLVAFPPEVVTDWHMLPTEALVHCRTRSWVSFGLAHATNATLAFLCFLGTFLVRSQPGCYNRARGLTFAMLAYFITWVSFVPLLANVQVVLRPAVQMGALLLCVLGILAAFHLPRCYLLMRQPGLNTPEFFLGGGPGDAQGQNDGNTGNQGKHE
In words: in vitro cell-based assay, cells expressing the T1R umami taste receptor; enhancement of MSG. The conditions noted are these: for MSG Enh. Ratio: MSG enhancement ratio at a particular concentration (concentration not given); for EC50: cells that express the T1R umami taste receptor, dose-binding curves; for MSG Enh. Ratio @ [10 uM]: compound at 10 uM. Here is the method: Each of Compounds 101-145 was synthesized according to one of the general procedures set forth above in Examples 1 and Example 2. Thereafter, the compounds were tested in an in vitro cell-based assay having cells that express the T1R umami taste receptor. Dose-binding curves were recorded and the EC50 was determined for enhancement of MSG binding. Table 2 sets forth the calculated EC50 values for certain tested compounds as well as the MSG enhancement ratio at a particular concentration.

For the compound `CCC(C)[C@@H](CO)NC(=O)/C=C/c1ccc(OC)cc1` (stereo in doubt) [Compound 115, (E)-N-((2S,3R)-1-hydroxy-3-methylpentan-2-yl)-3-(4-methoxyphenyl)acrylamide], the “MSG Enh. Ratio” value is on record as 1.5 and the EC50 is > 50 µM.

Regarding `CC(C)c1ccc(C(=O)N[C@H](CO)Cc2ccccc2)cc1` [Compound 101, (S)-N-(1-hydroxy-3-phenylpropan-2-yl)-4-isopropylbenzamide], the “MSG Enh. Ratio” value is reported as 1.4 and the EC50 is > 50 µM.

Take `CC(C)C[C@@H](CO)NC(=O)c1ccc(C(C)C)cc1` [Compound 102, (S)-N-(1-hydroxy-4-methylpentan-2-yl)-4-isopropylbenzamide]: the “MSG Enh. Ratio” value is 1.4 and the EC50 is > 50 µM.

In the case of `CC[C@H](C)[C@@H](CO)NC(=O)c1ccc(C(C)C)cc1` [Compound 103, N-((2S,3S)-1-hydroxy-3-methylpentan-2-yl)-4-isopropylbenzamide], the “MSG Enh. Ratio” value stood at 1.2 and the 50% effective concentration (EC50) is > 50 µM.

`Cc1ccc(C(=O)N[C@H](CO)CC(C)C)cc1C` [Compound 104, (S)-N-(1-hydroxy-4-methylpentan-2-yl)-3,4-dimethylbenzamide]: the “MSG Enh. Ratio” value was 2.8 and the EC50 is > 50 µM.

Turning to `Cc1ccc(C(=O)N[C@H](CO)Cc2ccccc2)cc1C` [Compound 105, (S)-N-(1-hydroxy-3-phenylpropan-2-yl)-3,4-dimethylbenzamide], the “MSG Enh. Ratio” value was determined as 3.4 and the 50% effective concentration (EC50) was > 50 µM.

In the case of `CC[C@H](C)[C@@H](CO)NC(=O)c1ccc(C)c(C)c1` [Compound 106, N-((2S,3S)-1-hydroxy-3-methylpentan-2-yl)-3,4-dimethylbenzamide], the “MSG Enh. Ratio” value stood at 2.5 and the concentration giving a half-maximal response (EC50) was > 50 µM.

For the compound `COc1cc(OC)cc(C(=O)N[C@H](CO)Cc2ccccc2)c1` [Compound 107, (S)-N-(1-hydroxy-3-phenylpropan-2-yl)-3,5-dimethoxybenzamide], the “MSG Enh. Ratio” value is 1.9 and the EC50 is > 50 µM.

With `COc1cc(OC)cc(C(=O)N[C@H](CO)CC(C)C)c1` [Compound 108, (S)-N-(1-hydroxy-4-methylpentan-2-yl)-3,5-dimethoxybenzamide], the “MSG Enh. Ratio” value is reported as 1.3 and the EC50 was > 50 µM.

As for `CC[C@H](C)[C@@H](CO)NC(=O)c1cc(OC)cc(OC)c1` [Compound 109, N-((2S,3S)-1-hydroxy-3-methylpentan-2-yl)-3,5-dimethoxybenzamide], the “MSG Enh. Ratio” value was 1.1 and the EC50 is > 50 µM.

Take `CC[C@H](C)[C@@H](CO)NC(=O)c1ccc2c(c1)OCO2` [Compound 110, N-((2S,3S)-1-hydroxy-3-methylpentan-2-yl) benzo[d][1,3]dioxole-5-carboxamide]: the “MSG Enh. Ratio” value is recorded as 1.4 and the EC50 is > 50 µM.

As for `O=C(N[C@H](CO)Cc1ccccc1)c1ccc2c(c1)OCO2` [Compound 111, (S)-N-(1-hydroxy-3-phenylpropan-2-yl) benzo[d][1,3]dioxole-5-carboxamide], the “MSG Enh. Ratio” value is 1.8 and the 50% effective concentration (EC50) is > 50 µM.

For `CC(C)C[C@@H](CO)NC(=O)c1ccc2c(c1)OCO2` [Compound 112, (S)-N-(1-hydroxy-4-methylpentan-2-yl) benzo[d][1,3]dioxole-5-carboxamide], the “MSG Enh. Ratio” value is 2.3 and the EC50 was > 50 µM.

As to `COc1cccc(C(=O)N[C@H](CO)Cc2ccccc2)c1O` [Compound 113, (S)-2-hydroxy-N-(1-hydroxy-3-phenylpropan-2-yl)-3-methoxybenzamide], the “MSG Enh. Ratio” value stood at 1.6 and the 50% effective concentration (EC50) is > 50 µM.

In the case of `COc1ccc(/C=C/C(=O)N[C@H](CO)CC(C)C)cc1` [Compound 114, (S,E)-3-(4-methoxyphenyl)-N-(1-hydroxy-4-methylpentan-2-yl)acrylamide], the “MSG Enh. Ratio” value was determined as 1.7 and the concentration for a half-maximal effect (EC50) was > 50 µM.

As for `COc1ccc(/C=C/C(=O)N[C@H](CO)Cc2ccccc2)cc1` [Compound 116, (S,E)-3-(4-methoxyphenyl)-N-(1-hydroxy-3-phenylpropan-2-yl)acrylamide], the half-maximal effective concentration (EC50) came to 11 µM and the “MSG Enh. Ratio @ [10 uM]” value was 6.9 @ [10 uM].

As for `CCOc1ccc(/C=C/C(=O)N[C@H](CO)CC(C)C)cc1` [Compound 117, (S,E)-3-(4-ethoxyphenyl)-N-(1-hydroxy-4-methylpentan-2-yl)acrylamide], the “MSG Enh. Ratio” value is 6.8 and the concentration giving a half-maximal response (EC50) was ~25 µM.

As to `CCOc1ccc(/C=C/C(=O)N[C@H](CO)[C@@H](C)CC)cc1` [Compound 118, (E)-3-(4-ethoxyphenyl)-N-((2S,3S)-1-hydroxy-3-methylpentan-2-yl)acrylamide], the “MSG Enh. Ratio” value is reported as 6.0 and the EC50 was ~40 µM.

On to `CCOc1ccc(/C=C/C(=O)N[C@H](CO)Cc2ccccc2)cc1` [Compound 119, (S,E)-3-(4-ethoxyphenyl)-N-(1-hydroxy-3-phenylpropan-2-yl)acrylamide], for which the concentration for a half-maximal effect (EC50) is 10 µM and the “MSG Enh. Ratio @ [10 uM]” value is 6.1 @ [10 uM].

As to `Cc1ccc(C(=O)N[C@H](Cc2ccccc2)C(=O)O)cc1` [Compound 120, (4-methylbenzoyl)-D-phenylalanine], the “MSG Enh. Ratio” value stood at 1.3 and the half-maximal effective concentration (EC50) was > 50 µM.

Consider `Cc1ccc(C(=O)N[C@H](C(=O)O)C(C)C)cc1C` [Compound 121, (3,4-dimethylbenzoyl)-L-valine], for which the “MSG Enh. Ratio” value turned out to be 1.1 and the EC50 is > 50 µM.

Regarding `Cc1ccc(C(=O)N[C@@H](CC(C)C)C(=O)O)cc1` [Compound 123, (4-methylbenzoyl)-L-leucine], the “MSG Enh. Ratio” value is reported as 1.2 and the concentration giving a half-maximal response (EC50) is > 50 µM.

On to `Cc1ccc(C(=O)N[C@@H](C(=O)O)C(C)C)cc1C` [Compound 124, (3,4-dimethylbenzoyl)-D-valine], for which the “MSG Enh. Ratio” value is recorded as 1.2 and the EC50 is > 50 µM.

Regarding `Cc1ccc(C(=O)N[C@H](Cc2ccccc2)C(=O)O)cc1C` [Compound 125, (3,4-dimethylbenzoyl)-D-phenylalanine], the “MSG Enh. Ratio” value is given as 1.3 and the concentration giving a half-maximal response (EC50) is > 50 µM.

On to `Cc1ccc(C(=O)N[C@H](CC(C)C)C(=O)O)cc1C` [Compound 126, (3,4-dimethylbenzoyl)-D-leucine], for which the “MSG Enh. Ratio” value came out at 1.8 and the EC50 turned out to be 27 µM.

In the case of `COc1ccc(C[C@H](NC(=O)c2ccc(C)c(C)c2)C(=O)O)cc1` [Compound 127, (S)-2-(3,4-dimethylbenzamido)-3-(4-methoxyphenyl) propanoic acid], the “MSG Enh. Ratio” value is recorded as 2.0 and the EC50 is > 50 µM.

On to `Cc1ccc(C(=O)N[C@@H](CCC(=O)O)C(=O)O)cc1C` [Compound 128, (3,4-dimethylbenzoyl)-L-glutamic acid], for which the “MSG Enh. Ratio” value is 1.4 and the half-maximal effective concentration (EC50) is > 50 µM.

In the case of `CC(C)C[C@@H](NC(=O)c1ccc2c(c1)OCO2)C(=O)O` [Compound 129, (benzo[d][1,3]dioxole-5-carbonyl)-D-leucine], the “MSG Enh. Ratio” value worked out at 3.5 and the EC50 is ~20 µM.

With `O=C(O)CC[C@H](NC(=O)c1ccc2c(c1)OCO2)C(=O)O` [Compound 131, (benzo[d][1,3]dioxole-5-carbonyl)-L-glutamic acid], the “MSG Enh. Ratio” value is on record as 1.2 and the EC50 is > 50 µM.
